Measured values taken from patent US20220073536A1 (Rigel Pharmaceuticals, Inc., priority 2003, published 2022).
Where two headings read alike, the source gives them in different places.

Test system: cultured human mast cells (CHMC)
Experiment: CHMC low cell density IgE activation: tryptase assay
Assay type: cell-based
Details: low cell density, IgE activation
How it was run: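 Anti-IgE-driven degranulation of cultured human mast cells at low density, 1000–1500 cells/well, was induced over 30 min at 37 °C. It was scored by supernatant tryptase activity on a fluorogenic substrate.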

[1] = Homo sapiens, Mast cell, 3 pt, read-out: LD Tryptase, CHMC, IgE, 3 pt
[2] = Homo sapiens, Mast cell, 8 pt, read-out: LD Tryptase, CHMC, IgE, 8 pt
[3] = 3 pt, read-out: LD Tryptase, CHMC, IgE, 3 pt
[4] = 8 pt, read-out: LD Tryptase, CHMC, IgE, 8 pt

| SMILES | IC50 [1] [µM] | IC50 [2] [µM] | also measured |
| --- | --- | --- | --- |
| CCOCCCn1ncc2cc(Nc3ncc(F)c(Nc4ccc5c(n4)NC(=O)C(C)(C)O5)n3)ccc21 [Compound 875, N4-(2,2-Dimethyl-3-oxo-4H-5-pyrid[1,4]oxazin-6-yl)-N2-[1-(3-ethoxypropyl)indazol-5-yl]-5-fluoro-2,4-pyrimidinediamine] | – | – | IC50 [3]: < 10 µM; IC50 [4]: < 10 µM |
| COc1ccc(Nc2ncc(F)c(Nc3ccc(OC)c(Cl)n3)n2)cc1Cl [Compound 878, N2-(3-Chloro-4-methoxyphenyl)-N4-(2-chloro-3-methoxypyrid-6-yl)-5-fluoro-2,4-pyrimidinediamine] | > 10 | – | – |
| CNC(=O)COc1cccc(Nc2ncc(F)c(Nc3ccc(OC)c(Cl)n3)n2)c1 [Compound 880, N4-(2-Chloro-3-methoxypyrid-6-yl)-5-fluoro-N2-[3-(N-methylamino)carbonylmethyleneoxyphenyl]-2,4-pyrimidinediamine] | – | – | IC50 [3]: < 10 µM; IC50 [4]: < 10 µM |
| COc1ccc(Nc2nc(Nc3ccc4c(cnn4C)c3)ncc2F)nc1Cl [Compound 886] | > 10 | – | – |
| Cc1nc2cc(Nc3ncc(F)c(Nc4ccc(Cl)c(Cl)c4)n3)ccc2n1CCO [Compound 899] | < 10 | < 10 | – |
| COc1ccc(Nc2nc(Nc3ccc4c(c3)nc(C)n4CCO)ncc2F)cc1Cl [Compound 900] | < 10 | – | – |
| Cc1nc2cc(Nc3ncc(F)c(Nc4ccc5c(c4)NC(=O)C(C)(C)O5)n3)ccc2n1CCO [Compound 901] | < 10 | < 10 | – |
| Cc1nc2cc(Nc3ncc(F)c(Nc4ccc5c(c4)NC(=O)[C@H](C)O5)n3)ccc2n1CCO [Compound 902] | – | < 10 | – |
| Cc1nc2cc(Nc3ncc(F)c(Nc4ccc5c(n4)NC(=O)C(C)(C)O5)n3)ccc2n1CCO [Compound 903, N4-(2,2-Dimethyl-3-oxo-4H-5-pyrid[1,4]oxazin-6-yl)-5-fluoro-N2-[1-(2-hydroxyethyl)-2-methylbenzimidazol-5-yl)-2,4-pyrimidinediamine] | – | < 10 | – |
| Cn1c(=O)[nH]c2cc(Nc3ncc(F)c(Nc4ccc(Cl)c(Cl)c4)n3)ccc21 [Compound 904] | > 10 | > 10 | – |
| COc1ccc(Nc2nc(Nc3ccc4c(c3)[nH]c(=O)n4C)ncc2F)cc1Cl [Compound 905] | < 10 | < 10 | – |
| Cn1c(=O)[nH]c2cc(Nc3ncc(F)c(Nc4ccc5c(c4)NC(=O)C(C)(C)O5)n3)ccc21 [Compound 906] | < 10 | < 10 | – |
| C[C@@H]1Oc2ccc(Nc3nc(Nc4ccc5c(c4)[nH]c(=O)n5C)ncc3F)cc2NC1=O [Compound 907] | < 10 | < 10 | – |
| Cn1c(=O)[nH]c2cc(Nc3ncc(F)c(Nc4ccc5c(n4)NC(=O)C(C)(C)O5)n3)ccc21 [Compound 908, N4-(2,2-Dimethyl-3-oxo-4H-5-pyrid[1,4]oxazin-6-yl)-N2-(2,3-dihydro-1-methyl-2-oxo-benzimidazol-5-yl)-5-fluoro-2,4-pyrimidinediamine] | – | – | IC50 [3]: < 10 µM; IC50 [4]: < 10 µM |
| Cc1nc2ccc(Nc3ncc(F)c(Nc4ccc5c(c4)NC(=O)C(C)S5(=O)=O)n3)cc2[nH]1 (stereo not shown) [Compound 909] | < 10 | – | – |
| CC1C(=O)Nc2cc(Nc3nc(Nc4ccc5[nH]c(C(F)(F)F)nc5c4)ncc3F)ccc2S1(=O)=O (stereo not shown) [Compound 910, 5-Fluoro-N4-(2-methyl-1,1,3-trioxo-2H,4H-benzo[1,4]thiazin-6-yl)-N2-(2-trifluoromethyl-1H-benzimidazol-5-yl)-2,4-pyrimidinediamine] | < 10 | – | – |
| Cn1c(C(F)(F)F)nc2cc(Nc3ncc(F)c(Nc4ccc(Cl)c(Cl)c4)n3)ccc21 [Compound 911] | – | < 10 | – |
| COc1ccc(Nc2nc(Nc3ccc4c(c3)nc(C(F)(F)F)n4C)ncc2F)cc1Cl [Compound 912] | – | < 10 | – |
| Cn1c(C(F)(F)F)nc2cc(Nc3ncc(F)c(Nc4ccc5c(c4)NC(=O)C(C)(C)O5)n3)ccc21 [Compound 913] | – | – | IC50 [4]: < 10 µM |
| C[C@@H]1Oc2ccc(Nc3nc(Nc4ccc5c(c4)nc(C(F)(F)F)n5C)ncc3F)cc2NC1=O [Compound 914] | – | < 10 | – |

Further lines, with some results ahead:

| IC50 [1] [µM] | IC50 [2] [µM] | SMILES | also measured |
| --- | --- | --- | --- |
| < 10 | < 10 | CCOCCCn1ncc2cc(Nc3ncc(F)c(Nc4ccc5c(c4)NC(=O)[C@H](C)O5)n3)ccc21 [Compound 874, (S)-N2-[1-(3-Ethoxypropyl)indazol-5-yl]-5-fluoro-N4-(2-methyl-3-oxo-2H,4H-benz[1,4]oxazin-6-yl)-2,4-pyrimidinediamine] | – |
| < 10 | < 10 | COc1ccc(Nc2nc(Nc3cc(OC)c(OC)c(OC)c3)ncc2F)nc1Cl [Compound 876, N4-(2-Chloro-3-methoxypyrid-6-yl)-5-fluoro-N2-(3,4,5-trimethoxyphenyl)-2,4-pyrimidinediamine] | – |
| < 10 | – | COc1ccc(Nc2ncc(F)c(Nc3ccc(OC)c(Cl)n3)n2)cc1OC [Compound 877, N4-(2-Chloro-3-methoxypyrid-6-yl)-N2-(3,4-dimethoxyphenyl)-5-fluoro-2,4-pyrimidinediamine] | – |
| < 10 | < 10 | COc1ccc(Nc2nc(Nc3cc(C)cc(C)c3)ncc2F)nc1Cl [Compound 879, N4-(2-Chloro-3-methoxypyrid-6-yl)-N2-(3,5-dimethylphenyl)-5-fluoro-2,4-pyrimidinediamine] | – |
| < 10 | – | COc1ccc(Nc2nc(Nc3ccc4cn[nH]c4c3)ncc2F)nc1Cl [Compound 882] | – |
| < 10 | – | COc1ccc(Nc2nc(Nc3ccc4[nH]c(C(F)(F)F)nc4c3)ncc2F)nc1Cl [Compound 883] | – |
| < 10 | – | COc1ccc(Nc2nc(Nc3ccc4nc(C)[nH]c4c3)ncc2F)nc1Cl [Compound 884] | – |
| < 10 | – | COc1ccc(Nc2nc(Nc3ccc4cnn(C)c4c3)ncc2F)nc1Cl [Compound 885] | – |
| < 10 | – | CCn1ncc2ccc(Nc3ncc(F)c(Nc4ccc(OC)c(Cl)n4)n3)cc21 [Compound 887] | – |
| < 10 | – | COc1ccc(Nc2nc(Nc3ccc4cnn(C(C)C)c4c3)ncc2F)nc1Cl [Compound 888] | – |
| < 10 | – | COc1ccc(Nc2nc(Nc3ccc4c(c3)NC(=O)C(C)(C)O4)ncc2F)nc1Cl [Compound 889] | – |
| < 10 | – | COc1ccc(Nc2nc(Nc3ccc4c(cnn4CCCNC(C)=O)c3)ncc2F)nc1Cl [Compound 890] | – |
| < 10 | – | COc1ccc(Nc2nc(Nc3ccc4c(cnn4CCCNC(=O)C4CC4)c3)ncc2F)nc1Cl [Compound 891] | – |
| < 10 | – | COc1ccc(Nc2nc(Nc3ccc4c(cnn4CCCNC(=O)C(C)(C)C)c3)ncc2F)nc1Cl [Compound 892] | – |
| < 10 | – | COc1ccc(Nc2nc(Nc3ccc4c(cnn4CCCNC(=O)C(C)C)c3)ncc2F)nc1Cl [Compound 893] | – |
| < 10 | – | Cc1nc2cc(Nc3ncc(F)c(Nc4ccc(Cl)c(Cl)c4)n3)ccc2n1C [Compound 894] | – |
| < 10 | – | COc1ccc(Nc2nc(Nc3ccc4c(c3)nc(C)n4C)ncc2F)cc1Cl [Compound 895] | – |
| < 10 | < 10 | Cc1nc2cc(Nc3ncc(F)c(Nc4ccc5c(c4)NC(=O)C(C)(C)O5)n3)ccc2n1C [Compound 896] | – |
| < 10 | < 10 | Cc1nc2cc(Nc3ncc(F)c(Nc4ccc5c(c4)NC(=O)[C@H](C)O5)n3)ccc2n1C [Compound 897] | – |
| < 10 | < 10 | Cc1nc2cc(Nc3ncc(F)c(Nc4ccc5c(n4)NC(=O)C(C)(C)O5)n3)ccc2n1C [Compound 898, N2-(1,2-Dimethylbenzimidazol-5-yl)-N4-(2,2-dimethyl-3-oxo-4H-5-pyrid[1,4]oxazin-6-yl)-5-Fluoro-2,4-pyrimidinediamine] | – |
